Results from patent US7569585B2, “1, 5-diaminopentan-3-ol compounds and related treatment methods” (Gruenenthal GmbH, priority 2001, dated 2009).

Target: T1, human alpha2A-adrenergic receptor (Homo sapiens, UniProt P08913)
T1 construct: human HT29 cells (RB-HAL2A, NEN, Zaventem, Belgium), which endogenously express the alpha2A-adrenergic receptor; purchased NEN, Zaventem, Belgium RB-HAL2A; host or cells: human HT29 cells (endogenous expression), membrane preparation
T1 sequence (P08913 1-465): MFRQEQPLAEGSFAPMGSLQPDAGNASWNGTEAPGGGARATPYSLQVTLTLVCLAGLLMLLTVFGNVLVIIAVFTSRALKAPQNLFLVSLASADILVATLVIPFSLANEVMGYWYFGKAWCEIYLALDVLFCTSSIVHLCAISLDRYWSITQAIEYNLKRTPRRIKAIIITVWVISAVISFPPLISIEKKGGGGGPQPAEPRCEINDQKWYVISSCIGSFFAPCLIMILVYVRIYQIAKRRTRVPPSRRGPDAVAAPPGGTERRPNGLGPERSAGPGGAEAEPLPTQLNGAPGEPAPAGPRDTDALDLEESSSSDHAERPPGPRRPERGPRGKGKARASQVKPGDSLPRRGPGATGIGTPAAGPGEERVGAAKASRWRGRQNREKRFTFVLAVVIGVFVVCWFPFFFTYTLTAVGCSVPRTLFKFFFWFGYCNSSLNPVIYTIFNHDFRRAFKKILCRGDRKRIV
Assay: Binding affinity to human alpha2A-adrenergic receptor ([3H]-MK-912 displacement, HT29 cell membrane preparation)
Conditions: compound concentration 10 NM [sic] (method: 10 μmol/l); displacement of 0.5 nmol/l [3H]-MK-912; HT29 membranes; pH 7.4
Description: Method for Determining the Binding Affinity to Human Alpha2A-adrenergic Receptor
The affinity of the compounds according to the invention to the pain-relevant alpha2A-receptor was investigated as follows.
The receptor affinity of the compounds according to the invention to human alpha2A-adrenergic receptor was determined in a microtiter plate batch. For this purpose, the compounds to be tested were incubated in a concentration of 10 μmol/l with a receptor membrane preparation of human HT29 cells (RB-HAL2A, NEN, Zaventem, Belgium), which endogenously express the alpha2A-adrenergic receptor, at a protein concentration of 40 μg protein/250 μl incubation batch in the presence of 0.5 nmol/l of the radioactively marked ligands [3H]-MK-912 (NET-1059, NEN, Zaventem, Belgium) for 30 minutes, with exclusion of light, at ambient temperature. A 25 mmol/l sodium phosphate buffer at a pH of 7.4 was used as the buffer system. The unspecific bond was determined in the presence of 10 μmol/l phentolamine. After incubation, the microtiter plates were filtered on glass fiber microtiter filter plates (Whatman GF/B, Hassel, Munich) using a Brandel Cell Harvester (MPRI-96T type, Hassel, Munich) and after drying of the glass fiber filter plates and subsequent charging of the plates with 35 μl of a scintillator (Ultima Gold, Canberra-Packard, Freiburg) were measured in a microtiter plate counter (1450 Microbeta Trilux, PerkinElmer-Wallac, Freiburg) after a delay of at least 90 minutes. The glass fiber microtiter filter plates were each pretreated prior to filtration of the incubation plates for 30 minutes with 50 μl per indentation of a 25 mmol/l sodium phosphate buffer supplemented by 0.5% (v/v) polyethylene imine at a pH of 7.4. The percentage inhibition effect of the compounds was calculated as a displacement of the radioactive ligand from its specific bond to the human alpha2A-adrenergic receptor.
Determining the Binding Affinity to Human Alpha2A-adrenergic Receptor
The binding affinities to human alpha2A-adrenergic receptor were determined by the foregoing methods.

| Compound | inhibition at 10 µM [%] |
| --- | --- |
| OC1(c2cccc(Cl)c2)C(CN2CCCCC2)CCCC1CN1CCCCC1 (stereo not drawn) [1-(3-chlorophenyl)-2,6-bis-piperidin-1-ylmethyl-cyclohexanol] | 51 |
| OC1(c2cccc(F)c2)C(CN2CCCCC2)CCCC1CN1CCCCC1 (stereo not drawn) [1-(3-fluorophenyl)-2,6-bis-piperidin-1-ylmethyl-cyclohexanol] | 48 |
| OC1(c2cc(Cl)cc(Cl)c2)C(CN2CCCCC2)CCCC1CN1CCCCC1 (stereo not drawn) [1-(3,5-dichlorophenyl)-2,6-bis-piperidin-1-ylmethyl-cyclohexanol] | 33 |
| COc1ccccc1C1(O)C(CN2CCCCC2)CCCC1CN1CCCCC1 (stereo not drawn) [1-(2-methoxy-phenyl)-2,6-bis-piperidin-1-ylmethyl-cyclohexanol] | 30 |
| OC1(c2ccc(Cl)c(C(F)(F)F)c2)C(CN2CCCCC2)CCCC1CN1CCCCC1 (stereo not drawn) [1-(4-chloro-3-trifluoromethyl-phenyl)-2,6-bis-piperidin-1-ylmethyl-cyclohexanol] | 26 |
| Cc1ccccc1CC1(O)C(CN2CCCCC2)CCCC1CN1CCCCC1 (stereo not drawn) [1-(2-methyl-benzyl)-2,6-bis-piperidin-1-ylmethyl-cyclohexanol] | 100 |
| OC1(c2ccc(F)c(Cl)c2)C(CN2CCCCC2)CCCC1CN1CCCCC1 (stereo not drawn) [1-(3-chloro-4-fluorophenyl)-2,6-bis-piperidin-1-ylmethyl-cyclohexanol] | 38 |
| OC1(Cc2ccc(F)cc2)C(CN2CCCCC2)CCCC1CN1CCCCC1 (stereo not drawn) [1-(4-fluorobenzyl)-2,6-bis-piperidin-1-ylmethyl-cyclohexanol] | 87 |
| Cc1ccc(C)c(CC2(O)C(CN3CCCCC3)CCCC2CN2CCCCC2)c1 (stereo not drawn) [1-(2,5-dimethyl-benzyl)-2,6-bis-piperidin-1-ylmethyl-cyclohexanol] | 100 |
| COc1cccc(CC2(O)C(CN3CCCCC3)CCCC2CN2CCCCC2)c1 (stereo not drawn) [1-(3-methoxy-benzyl)-2,6-bis-piperidin-1-ylmethyl-cyclohexanol] | 80 |
| Cc1cccc(CC2(O)C(CN3CCCCC3)CCCC2CN2CCCCC2)c1 (stereo not drawn) [1-(3-methyl-benzyl)-2,6-bis-piperidin-1-ylmethyl-cyclohexanol] | 100 |
| OC1(c2cccc(C(F)(F)F)c2)C(CN2CCCCC2)CCCC1CN1CCCCC1 (stereo not drawn) [2,6-bis-piperidin-1-ylmethyl-1-(3-trifluoromethyl-phenyl)-cyclohexanol] | 56 |

More lines, now with the values ahead:

| inhibition at 10 µM [%] | Compound |
| --- | --- |
| 100 | OC1(Cc2ccc(Cl)cc2Cl)C(CN2CCCCC2)CCCC1CN1CCCCC1 (stereo not drawn) [1-(2,4-dichlorobenzyl)-2,6-bis-piperidin-1-ylmethyl-cyclohexanol] |
| 100 | OC1(Cc2ccccc2Cl)C(CN2CCCCC2)CCCC1CN1CCCCC1 (stereo not drawn) [1-(2-chlorobenzyl)-2,6-bis-piperidin-1-ylmethyl-cyclohexanol] |
| 98 | OC1(Cc2cccc(Cl)c2)C(CN2CCCCC2)CCCC1CN1CCCCC1 (stereo not drawn) [1-(3-chlorobenzyl)-2,6-bis-piperidin-1-ylmethyl-cyclohexanol] |
| 68 | OC1(Cc2c(F)cccc2Cl)C(CN2CCCCC2)CCCC1CN1CCCCC1 (stereo not drawn) [1-(2-chloro-6-fluorobenzyl)-2,6-bis-piperidin-1-ylmethyl-cyclohexanol] |
| 88 | OC1(Cc2ccc(Cl)cc2)C(CN2CCCCC2)CCCC1CN1CCCCC1 (stereo not drawn) [1-(4-chlorobenzyl)-2,6-bis-piperidin-1-ylmethyl-cyclohexanol] |
| 59 | OC1(Cc2cccc(F)c2)C(CN2CCCCC2)CCCC1CN1CCCCC1 (stereo not drawn) [1-(3-fluorobenzyl)-2,6-bis-piperidin-1-ylmethyl-cyclohexanol] |
